# Marks after values point to notes of the source that are not given here.
# Test system: Meloidogyne incognita nematodes
# Test: Miniaturized greenhouse nematicidal efficacy assay (cucumber seedlings in sand, root gall rating)
# [1] = 0.5 ppm, test b, average of triplicate gall ratings (scale 0-3, % root mass galled)
# [2] = 1 ppm, test b, average of triplicate gall ratings (scale 0-3, % root mass galled)
# [3] = 8 ppm, test b, average of triplicate gall ratings (scale 0-3, % root mass galled)
# [4] = 0.5 ppm, test a, average of triplicate gall ratings (scale 0-3, % root mass galled)
# [5] = 1 ppm, test a, average of triplicate gall ratings (scale 0-3, % root mass galled)
# [6] = 8 ppm, test a, average of triplicate gall ratings (0=0-5%, 1=6-20%, 2=21-50%, 3=51-100% root mass galled), harvest 10 to 12 days after inoculation
Compound,8/1/0.5 ppm gall ratings* [1],8/1/0.5 ppm gall ratings* [2],8/1/0.5 ppm gall ratings* [3],8/1/0.5 ppm gall ratings* [4],8/1/0.5 ppm gall ratings* [5],8/1/0.5 ppm gall ratings* [6]
"Clc1cccc(C2NC(c3cccs3)=NO2)c1 (stereo not shown) [IIa-ii, 5-(3-chlorophenyl)-3-(thiophen-2-yl)-4,5-dihydro-1,2,4-oxadiazole]",3.00,2.33,0.33,–,–,–
"Cc1cc(Cl)ccc1C1NC(c2ccco2)=NO1 (stereo not shown) [IIa-iii, 5-(4-chloro-2-methylphenyl)-3-(furan-2-yl)-4,5-dihydro-1,2,4-oxadiazole]",2.33,1.67,0.00,–,–,–
"c1ccc(C2=NOC(c3cccs3)N2)cc1 (stereo not shown) [Ia-i, 3-phenyl-5-(thiophen-2-yl)-4,5-dihydro-1,2,4-oxadiazole]",2.67,1.67,0.00,2.33,1.33,0.00
"c1ccc(C2=NOC(c3ccco3)N2)cc1 (stereo not shown) [Ia-ii, 5-(furan-2-yl)-3-phenyl-4,5-dihydro-1,2,4-oxadiazole]",2.33,0.67,0.00,2.67,2.00,0.00
"Clc1ccc(C2=NOC(c3ccco3)N2)cc1 (stereo not shown) [Ia-iii, 3-(4-chlorophenyl)-5-(furan-2-yl)-4,5-dihydro-1,2,4-oxadiazole]",3.00,1.67,0.00,–,–,–
"Cc1cc(Cl)ccc1C1=NOC(c2ccco2)N1 (stereo not shown) [Ia-iv, 3-(4-chloro-2-methylphenyl)-5-(furan-2-yl)-4,5-dihydro-1,2,4-oxadiazole]",2.67,1.67,0.00,–,–,–
"Clc1ccc(C2=NOC(c3ccco3)N2)c(Cl)c1 (stereo not shown) [Ia-ix, 3-(2,4-dichlorophenyl)-5-(furan-2-yl)-4,5-dihydro-1,2,4-oxadiazole]",3.00,2.33,0.00,–,–,–
"Fc1ccc(C2=NOC(c3cccs3)N2)cc1 (stereo not shown) [Ia-v, 3-(4-fluorophenyl)-5-(thiophen-2-yl)-4,5-dihydro-1,2,4-oxadiazole]",1.67,0.00,0.00,–,–,–
"Clc1ccc(C2=NOC(c3ccoc3)N2)cc1 (stereo not shown) [Ib-iv, 3-(4-chlorophenyl)-5-(furan-3-yl)-4,5-dihydro-1,2,4-oxadiazole]",2.67,1.33,0.00,–,–,–
Abamectin [reference compound],–,–,–,–,1.67^a,–

# From patent US9232800B2
